{
  "source": "patent US20250305004A1",
  "about": "“ENHANCING GENE TARGETING EFFICIENCY IN HUMAN CELLS WITH DNA-PK INHIBITOR TREATMENT” (The Board of Trustees of the Leland Stanford Junior …, priority 2022, published 2025)",
  "key": {"[1]": {"system": "TRAC gene locus in T cells", "details": "0.5 μM; AAV6 MOI 1250 and 2500", "source_text": "(FIG. 34d). Next, we tested the effect of compound treatment when titrating down the AAV6 donor amounts for gene targeting at the CCR5 locus. […] For this, we assessed the CD19-CAR knock-in at the TRAC gene locus in T cells using a previously reported gene editing strategy^87 (FIG. 14c)."}, "HBA1 locus in PSCs": {"system": "HBA1 locus in PSCs", "experiment": "RNP/AAV6 gene targeting / gene replacement at HBA1 locus in PSCs", "type": "cell-based, human", "details": "0.5 μM", "method": "(§1) Gene targeting efficiency was measured by droplet digital PCR (ddPCR) and flow cytometry (for GFP) to measure the allelic targeting efficiency (FIG. 2B) and percentage of targeted cells (FIG. 2C) respectively. […] The treatment was carried out for 24 hours post gene targeting and the efficiency was calculated 1 week post gene targeting using ddPCR analysis.\n(§2) First, we tested the treatment for editing the sickle cell disease (SCD) and cystic fibrosis (CF) mutations at HBB and CFTR loci respectively using the previously described Cas9 RNP and AAV6 donor reagents in WT PSC^71-73 (FIG. 19a-d).\n(§3) PSC culture and genome editing. […] For each nucleofection, RNP complex was prepared with 5 μg of Cas9 protein and 2 μg of gRNA and incubated for 15 mins at room temperature. PSCs were dissociated into single cells using Accutase (Innovative Cell Technologies, cat: AT104). […] Resuspended cells were added to one well of a 16-well Nucleocuvette Strip (Lonza) and nucleofection was performed in the 4D nucleofector (Lonza) using the program, CA137. Nucleofected PSCs were plated in mTeSR1 medium supplemented with 10 μM of Y27632 at a density of 100,000 cells per well in 48-well plate, AAV6 vector and DNA-PKcs inhibitors were added to the medium at indicated concentrations. […] From the following day, PSCs were cultured in mTeSR1 without Y27632. Gene targeting efficiency was analyzed at 4-6 days post-editing.\n(§4) ddPCR analysis of targeted integration. Gene targeting efficiency for the knock-in of multi-kb sequences was measured through digital droplet PCR (ddPCR) analysis. […] After PCR, the droplets were analyzed using the QX200 Droplet Digital PCR reader (Biorad) and Quantasoft software was used to determine the number of copies of the target and reference DNA in the droplets. The allelic gene targeting efficiency was calculated as the percentage of target DNA copies relative to that of the reference. […]\n(§5) ICE analysis for quantification of gene editing. […] Following PCR, the amplicons were detected on agarose gel and purified from the gel using GeneJet Gel Extraction Kit (Thermo Fisher Scientific, cat: K0692). […]"}, "PI3K family of kinases": {"system": "PI3K family of kinases", "experiment": "Western blot, phosphorylation of AKT (Ser473) by PI3K family kinases in PSC", "type": "cell-based, human", "details": "2 h"}, "human primary cells": {"system": "human primary cells", "experiment": "Gene targeting across different genomic loci and primary cell types (summary statements)", "type": "cell-based", "details": "in some examples", "source_text": "Nuclease-based genome editing can result in either site-specific insertions/deletions (INDELs) or targeted integrations depending on which pathway of natural DNA double-strand break repair is harnessed: non-homologous end-joining (NHEJ), microhomology mediated end-joining (MMEJ) or homology-directed repair (HDR)."}, "HBB locus in PSCs": {"system": "HBB locus in PSCs", "experiment": "RNP/AAV6 gene targeting at HBB locus in PSCs", "type": "cell-based, human", "details": "UBC-GFP-bGHpA knock-in; 0.5 μM", "method": "as §1, §2\nPSC culture and genome editing. […] Gene targeting efficiency was analyzed at 4-6 days post-editing.\nas §4, §5"}, "CCR5 locus in B cells": {"system": "CCR5 locus in B cells", "experiment": "RNP/AAV6 gene targeting at CCR5 locus in B cells", "type": "cell-based, human", "details": "different concentrations (4, 2, 1, 0.5 and 0.1 μM); ddPCR", "method": "B cell culture and genome editing. […] B cells were cultured at 37° C., 5% CO2, and ambient oxygen levels.\nFor genome editing, gRNA targeting CCR5 was complexed with Cas9 protein were complexed at a 2.5:1 ([…]) molar ratio at room temperature for 20 min. […] Cells were then replated at 1 million cells/ml in complete B cell activation media. […] Gene targeting was assessed at 3-days post-editing."}, "STING1 locus in HSPCs": {"system": "STING1 locus in HSPCs", "experiment": "RNP/AAV6 gene targeting at STING1 locus in HSPCs", "type": "cell-based, human", "details": "seemingly inactive gRNA (sg5)", "source_text": "(§6) ICE analysis for quantification of gene editing.\nCD34+ HSPC culture and genome editing."}, "CCR5 locus in HSPCs": {"system": "CCR5 locus in HSPCs", "experiment": "RNP/AAV6 gene targeting at CCR5 locus in CD34+ HSPCs", "type": "cell-based, human", "details": "two stop codons; sg1 and sg4", "method": "ddPCR analysis of targeted integration. Gene targeting efficiency for the knock-in of multi-kb sequences was measured through digital droplet PCR (ddPCR) analysis. For this, genomic DNA was extracted from cells using the QuickExtract™ DNA Extraction Solution (QE) (Lucigen, Cat: QE09050). Pellets of 100,000 to 200,000 cells were resuspended in 40 to 50 μl of QE solution. This cell suspension was incubated at 65° C. for 6 mins and then 100° C. for 10 mins. The quick extracted genomic DNA was digested with either BamHI-HF or HindIII-HF (NEB) enzymes at 37° C. for 1 to 2 hours. […] 40 μl of the generated droplet sample was used for the PCR with the following cycle: 95° C. for 10 mins, 50 cycles of 94° C. for 30 secs, 60° C. for 30 secs and 72° C. for 2 mins and 98° C. for 10 mins. After PCR, the droplets were analyzed using the QX200 Droplet Digital PCR reader (Biorad) and Quantasoft software was used to determine the number of copies of the target and reference DNA in the droplets. The allelic gene targeting efficiency was calculated as the percentage of target DNA copies relative to that of the reference. […]\nas §5"}, "CCR5 locus in PSCs": {"system": "CCR5 locus in PSCs", "experiment": "RNP/AAV6 gene targeting at CCR5 locus, knock-in of two stop codons, PSCs", "type": "cell-based, human", "details": "low activity gRNAs sg1 and sg4; 0.5 μM", "method": "as §3\nICE analysis for quantification of gene editing. ICE CRISPR analysis tool (Synthego) was used to determine the allelic distribution of WT, INDEL and HDR frequencies for gene targeting involving knock-in of short sequences and for calculating the frequency of WT and INDEL alleles for gene targeting involving knock-in of multi-kb sequences. […] Following PCR, the amplicons were detected on agarose gel and purified from the gel using GeneJet Gel Extraction Kit (Thermo Fisher Scientific, cat: K0692). […]"}, "CFTR locus in HBECs": {"system": "CFTR locus in HBECs", "experiment": "RNP/AAV6 gene targeting at CFTR locus in HBECs", "type": "cell-based, human", "details": "0.5 μM", "method": "as §6\nCell culture and genome editing of HBECs. Human bronchial epithelial cells (HBECs) were obtained from Lonza Inc., the Primary Airway Cell Biobank at McGill University, the Cystic Fibrosis Foundation Cell Bank or the University of North Carolina. […] Cells were cultured at 37° C. in 5% 02 and 5% CO2."}},
  "note": "“Also recorded” adds a separate entry of the source.",
  "data": [
    {"smiles": "Cc1cc2ncnn2cc1Nc1ncc2c(n1)n(C1CCOCC1)c(=O)n2C", "note": "[AZD7648, 7-methyl-2-((7-methyl-[1,2,4]triazolo[l,5-a]pyridin-6-yl)amino)-9-(tetrahydro-2H-pyran-4-yl)-7,9-dihydro-8H-purin-8-one]", "values": [
      {"measurement": "increase in frequency of CD19-CAR+ T cells vs untreated", "setting": "[1]", "value": 1.4, "unit": "fold"},
      {"measurement": "effect on gene targeting vs untreated", "setting": "HBA1 locus in PSCs", "value": "enhanced the gene targeting significantly"},
      {"measurement": "phosphorylation of AKT (Ser473)", "setting": "PI3K family of kinases", "value": "did not affect the phosphorylation of AKT"},
      {"measurement": "increase in HDR", "setting": "human primary cells", "value": "up to 50 fold"},
      {"measurement": "effect on gene targeting vs untreated", "setting": "HBB locus in PSCs", "value": "enhanced the gene targeting significantly; also recorded: significant improvement"},
      {"measurement": "enhancement of gene targeting", "setting": "CCR5 locus in B cells", "value": "about 2 fold"},
      {"measurement": "INDELs after gene targeting", "setting": "STING1 locus in HSPCs", "value": "no INDELs"},
      {"measurement": "INDELs after gene targeting", "setting": "CCR5 locus in HSPCs", "value": "INDEL-free HDR"},
      {"measurement": "INDELs after gene targeting", "setting": "CCR5 locus in PSCs", "value": "INDEL-free"},
      {"measurement": "alleles with INDELs vs untreated", "setting": "CFTR locus in HBECs; CF patient derived HBECs", "value": "much lower frequency of alleles with INDELs"},
      {"measurement": "improvement of frequency of gene targeted (GFP+) cells", "setting": "CFTR locus in HBECs; exon 1 knock-in", "value": "around 2 fold"}
    ]}
  ]
}
